In the CheMixHub viscosity set:

Assay: xn = mol fraction of the nth substance listed

CC(C)c1ccccc1 + CCCCO
viscosity [mPa·s], 101 kPa
Details	298.15 K	303.15 K	308.15 K	313.15 K	318.15 K	323.15 K
x1 = 0.0989	2.069	–	1.657	–	–	–
x1 = 0.1844	1.723	–	1.398	–	–	–
x1 = 0.2877	1.417	–	1.135	–	–	–
x1 = 0.3941	1.188	–	0.9456	–	–	–
x1 = 0.5189	1.001	–	0.8025	–	–	–
x1 = 0.6544	0.8693	–	0.7291	–	–	–
x1 = 0.796	0.7776	–	0.7157	–	–	–
x2 = 0.1001	–	0.6982	0.6545	0.6143	0.5795	0.5481
x2 = 0.1998	–	0.7295	0.6815	0.6366	0.5969	0.5613
x2 = 0.3007	–	0.7788	0.7225	0.6725	0.6285	0.5885
x2 = 0.3997	–	0.8423	0.7784	0.7209	0.6696	0.6249
x2 = 0.4999	–	0.9355	0.8588	0.7901	0.7288	0.6767
x2 = 0.6	–	1.068	0.9725	0.8867	0.8131	0.7485
x2 = 0.6992	–	1.252	1.129	1.022	0.9275	0.848
x2 = 0.7999	–	1.474	1.323	1.187	1.068	0.9682
x2 = 0.9006	–	1.837	1.629	1.452	1.298	1.168

CCCCOC(C)=O + CCCCO
viscosity [mPa·s], 101 kPa
Details	x1 = 0.1	x1 = 0.1944	x1 = 0.2974	x1 = 0.3991	x1 = 0.4988	x1 = 0.6008	x1 = 0.6913	x1 = 0.7961	x1 = 0.8993
298.15 K	2.212	1.921	1.641	1.407	1.212	1.041	0.923	0.813	0.727
303.15 K	1.962	1.713	1.475	1.262	1.091	0.948	0.839	0.755	0.688
308.15 K	1.75	1.532	1.31	1.146	0.993	0.876	0.789	0.703	0.646
313.15 K	1.558	1.365	1.184	1.037	0.908	0.806	0.731	0.662	0.619

CCCN + CCCCO
Details	viscosity [mPa·s]
298.15 K, 100 kPa, x2 = 0.0488	0.3946
298.15 K, 100 kPa, x2 = 0.0977	0.4367
298.15 K, 100 kPa, x2 = 0.2026	0.552
298.15 K, 100 kPa, x2 = 0.2966	0.6772
298.15 K, 100 kPa, x2 = 0.4	0.8384
298.15 K, 100 kPa, x2 = 0.4939	1.003
298.15 K, 100 kPa, x2 = 0.58	1.166
298.15 K, 100 kPa, x2 = 0.645	1.305
298.15 K, 100 kPa, x2 = 0.7024	1.45
298.15 K, 100 kPa, x2 = 0.7958	1.721
298.15 K, 100 kPa, x2 = 0.9025	2.113
303.15 K, 101 kPa, x1 = 0.01186	2.214
303.15 K, 101 kPa, x1 = 0.02208	2.185
303.15 K, 101 kPa, x1 = 0.03071	2.16
303.15 K, 101 kPa, x1 = 0.04153	2.133
303.15 K, 101 kPa, x1 = 0.04894	2.113
303.15 K, 101 kPa, x1 = 0.06228	2.083
303.15 K, 101 kPa, x1 = 0.07291	2.053
303.15 K, 101 kPa, x1 = 0.07608	2.038
303.15 K, 101 kPa, x1 = 0.08641	2.013
303.15 K, 101.33 kPa, x1 = 0.0967	2.02
303.15 K, 101.33 kPa, x1 = 0.186	1.771
303.15 K, 101.33 kPa, x1 = 0.2863	1.501
303.15 K, 101.33 kPa, x1 = 0.4131	1.177
303.15 K, 101.33 kPa, x1 = 0.514	0.9669
303.15 K, 101.33 kPa, x1 = 0.6196	0.7833
303.15 K, 101.33 kPa, x1 = 0.7178	0.6396
303.15 K, 101.33 kPa, x1 = 0.8121	0.5233
303.15 K, 101.33 kPa, x1 = 0.9017	0.433
313.15 K, 101.33 kPa, x1 = 0.0967	1.617
313.15 K, 101.33 kPa, x1 = 0.186	1.427
313.15 K, 101.33 kPa, x1 = 0.2863	1.218
313.15 K, 101.33 kPa, x1 = 0.4131	0.9675
313.15 K, 101.33 kPa, x1 = 0.514	0.7924
313.15 K, 101.33 kPa, x1 = 0.6196	0.6548
313.15 K, 101.33 kPa, x1 = 0.7178	0.5412
313.15 K, 101.33 kPa, x1 = 0.8121	0.4506
313.15 K, 101.33 kPa, x1 = 0.9017	0.3783
